Holding throughout (assay type): cell-based
Series [1] has as its system human red blood cells (hRBC). The note with it: red cells of human, 1 h, 200 μg/mL. The method, boiled down:
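Peptides at 200 μg/mL incubated 1 h at 37 °C with 20% (v/v) washed human RBC, shaking. Hemolysis from supernatant OD540, expressed as percent of 2.5% Triton X-100 lysis, with PBS as 0%.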

In series [2] the test system is Klebsiella pneumoniae SSI3010. As to conditions: SSI3010. An outline of the steps:
(§1)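 The MIC is the lowest peptide concentration, in μg/mL, with no visible growth after 18-20 h incubation at 35 °C. Serial two-fold peptide dilutions in water with 0.002% P-80 final were added to bacteria in cation-adjusted MHII broth, about 5×10^5 CFU/mL, following modified CLSI microdilution.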

Series [3] deals with Escherichia coli ATCC 25922. As to conditions: ATCC 25922. An outline of the steps: as §1
Series [4] relates to Escherichia coli MCR-1 Af 45. The note with it: MCR-1 Af 45. The method, boiled down:
as §1

Where a SMILES comes first, the peptide text is derived from it. Bridges are numbered along the chain shown (N, C = ends). [ ]: non-standard residue; d: D form. Dab(iPr) = CC(C)NCC[C@H](N)C(=O)O; Hyp = O=C(O)[C@@H]1C[C@@H](O)CN1; Cha = N[C@@H](CC1CCCCC1)C(=O)O; Pen = CC(C)(S)[C@H](N)C(=O)O; dDab = NCC[C@@H](N)C(=O)O; Orn = NCCC[C@H](N)C(=O)O; Dab = NCC[C@H](N)C(=O)O Some results are limits rather than exact numbers.

For the compound `CC[C@H](C)[C@H](NC(=O)[C@@H]1C[C@@H](O)CN1C(=O)[C@@H](N)C(C)C)C(=O)N[C@@H]1C(=O)N[C@@H](Cc2ccc(O)cc2)C(=O)N[C@@H](CO)C(=O)N[C@@H](CC(N)=O)C(=O)N[C@@H](CCCNC(=N)N)C(=O)N[C@@H](CCN)C(=O)N[C@@H]([C@@H](C)O)C(=O)N[C@H](CCN)C(=O)N[C@@H](CCCCN)C(=O)N[C@@H](CCN)C(=O)N[C@@H](CCNC(C)C)C(=O)N[C@H](C(=O)N[C@@H](Cc2ccc(O)cc2)C(=O)O)CSSC1(C)C` [Example 63, Val-Hyp-Ile-Pen-Tyr-Ser-Asn-Arg-Dab-Thr-^DDab-Lys-Dab-Dab(iPr)-Cys-Tyr] (H-V[Hyp]I[Pen]YSNR[Dab]T[dDab]K[Dab][Dab(iPr)]CY-OH; disulfide 4-15), the “Hemolysis at 0.2 g/L” value in series [1] is on record as below 1%. Also, the “Klebsiella pneumoniae SSI3010 MIC” value in series [2] was found to be 0.25 µg/mL. In addition, in series [3], the “Escherichia coli ATCC 25922 MIC” value worked out at 0.125 µg/mL. Besides, the “Escherichia coli MCR-1 Af45 MIC” value in series [4] worked out at 0.0625 µg/mL.
Consider `CC[C@H](C)[C@H](NC(=O)[C@@H]1C[C@@H](O)CN1C(=O)[C@@H](N)C(C)C)C(=O)N[C@@H]1C(=O)N[C@@H](Cc2ccc(O)cc2)C(=O)N[C@@H](CO)C(=O)N[C@@H](CC(N)=O)C(=O)N[C@@H](CCCNC(=N)N)C(=O)N[C@@H](CCN)C(=O)N[C@@H]([C@@H](C)O)C(=O)N[C@H](CCN)C(=O)N[C@@H](CCCCN)C(=O)N[C@@H](CCN)C(=O)N[C@@H](CCCN)C(=O)N[C@H](C(=O)N[C@@H](Cc2ccc(O)cc2)C(=O)O)CSSC1(C)C` [Example 64, Val-Hyp-Ile-Pen-Tyr-Ser-Asn-Arg-Dab-Thr-^DDab-Lys-Dab-Orn-Cys-Tyr] (H-V[Hyp]I[Pen]YSNR[Dab]T[dDab]K[Dab][Orn]CY-OH; disulfide 4-15), for which the “Hemolysis at 0.2 g/L” value in series [1] is below 1%. For the same compound, the “Klebsiella pneumoniae SSI3010 MIC” value in series [2] is 0.125 µg/mL. For the same compound, the “Escherichia coli ATCC 25922 MIC” value in series [3] is 0.0625 µg/mL. Moreover, the “Escherichia coli MCR-1 Af45 MIC” value in series [4] came to 0.0625 µg/mL.
For the compound `CC[C@H](C)[C@H](NC(=O)[C@@H]1C[C@@H](O)CN1C(=O)[C@@H](N)C(C)C)C(=O)N[C@@H]1C(=O)N[C@@H](Cc2ccc(O)cc2)C(=O)N[C@@H](CO)C(=O)N[C@@H](CC(N)=O)C(=O)N[C@@H](CCCNC(=N)N)C(=O)N[C@@H](CCN)C(=O)N[C@@H]([C@@H](C)O)C(=O)N[C@H](CCN)C(=O)N[C@@H](CCCCN)C(=O)N[C@@H](CCN)C(=O)N[C@@H](CCN)C(=O)N[C@H](C(=O)N[C@@H](CC2CCCCC2)C(=O)O)CSSC1(C)C` [Example 65, Val-Hyp-Ile-Pen-Tyr-Ser-Asn-Arg-Dab-Thr-^DDab-Lys-Dab-Dab-Cys-Cha] (H-V[Hyp]I[Pen]YSNR[Dab]T[dDab]K[Dab][Dab]C[Cha]-OH; disulfide 4-15), in series [1], the “Hemolysis at 0.2 g/L” value was below 1%. In addition, in series [2], the “Klebsiella pneumoniae SSI3010 MIC” value is 0.25 µg/mL. In addition, the “Escherichia coli ATCC 25922 MIC” value in series [3] came to 0.25 µg/mL. In series [4], the “Escherichia coli MCR-1 Af45 MIC” value amounted to 0.0625 µg/mL.
Take `CC[C@H](C)[C@H](NC(=O)[C@@H]1C[C@@H](O)CN1C(=O)[C@@H](N)C(C)C)C(=O)N[C@@H]1C(=O)N[C@@H](Cc2ccc(O)cc2)C(=O)N[C@@H](CO)C(=O)N[C@@H](CC(N)=O)C(=O)N[C@@H](CCCNC(=N)N)C(=O)N[C@@H](CCN)C(=O)N[C@@H]([C@@H](C)O)C(=O)N[C@H](CCN)C(=O)N[C@@H](CCCCN)C(=O)N[C@@H](CCN)C(=O)N[C@@H](CCN)C(=O)N[C@H](C(=O)N[C@@H](Cc2c[nH]c3ccccc23)C(=O)O)CSSC1(C)C` [Example 66, Val-Hyp-Ile-Pen-Tyr-Ser-Asn-Arg-Dab-Thr-^DDab-Lys-Dab-Dab-Cys-Trp] (H-V[Hyp]I[Pen]YSNR[Dab]T[dDab]K[Dab][Dab]CW-OH; disulfide 4-15): the “Hemolysis at 0.2 g/L” value in series [1] is below 1%. Also, in series [2], the “Klebsiella pneumoniae SSI3010 MIC” value was determined as 0.125 µg/mL. In addition, the “Escherichia coli ATCC 25922 MIC” value in series [3] was determined as 0.0625 µg/mL. For the same compound, the “Escherichia coli MCR-1 Af45 MIC” value in series [4] was 0.0625 µg/mL.

(Values after patent US20240336654A1, “ANTIMICROBIAL PEPTIDOMIMETICS” (SPEXIS AG, priority 2021, published 2024).)
